Measurements as given in patent US8268823B2, “Medical use of triazine derivatives” (University of Greenwich, priority 2006, dated 2012).
Values joined by “and” are separate entries in the source; they are usually repeats but may differ in a detail not shown here. Identical values can stand only once. Counter-ions that a name gives are not always drawn. Like-named read-outs stand apart in the source and are kept apart here.

Experiments:
[1] = test system: sodium channel; test: veratrine-evoked uptake of [14C]guanidine into rat forebrain synaptosomes ([14C]guanidine flux); assay type: biochemical
Protocol: The screening strategy is designed to select compounds with appropriate sodium channel blocking activity and low side effect liability. To this end all compounds are processed through the primary sodium channel assay (veratrine-evoked uptake of [^14C]guanidine into rat forebrain synaptosomes) and IC50 values computed from generated concentration-effect curves.
Synaptosomes (heavy and light mitochondrial fraction containing synaptosomes) were prepared by transferring the forebrain (of known wet weight) to a glass Potter vessel to which 9 volumes ice-cold 0.25M sucrose had been added and homogenising, using a teflon pestle, by 8 ‘up and down strokes’ of a Braun Potter S motor driven homogeniser set to 900 rpm. The resulting homogenate was centrifuged at 1036×g at 4° for 10 min and the supernatant collected. The remaining pellet was resuspended, as above, in fresh ice-cold 0.25M sucrose and the centrifugation step repeated. The supernatant fractions were pooled and centrifuged at 40,000×g (average) at 4° for 15 min and the resulting pellet resuspended in the appropriate assay buffer at a concentration of 20-25 mg wet weight per ml appropriate assay buffer.
Both assays were carried out using 14 ml polypropylene test tubes to which a range of concentrations of the compounds under test were added.
Compounds under test were pre-incubated for 10 min at 30° in incubation buffer (50 mM pH 7.4 HEPES (adjusted to pH 7.4 with Tris base), 130 mM choline chloride, 5.5 mM D-glucose, 0.8 mm MgSO4 and 5 mM KCl) containing 7.5 mg original wet weight of tissue and 100 μg veratrine HCl in a final volume of 0.5 ml. […] A further 2×5 ml of ice-cold wash buffer was added to each tube and the vacuum filtration step repeated. The GF/C glass fibre filters were transferred to minivials and 4 ml Picofluor^40 liquid scintillant added using a Brandel™ deposit/dispense system. Radioactivity was measured using a Beckman Liquid Scintillation Counter.
(§1) Data are presented as mean±sem of number of experiments indicated in brackets.

[2] = test system: sodium channel; assay type: binding, rat
[3] = test system: 0.4 mm slices of rat hippocampus; test: hippocampal slice assay: ATP after iodoacetate metabolic insult; details: for Emax: read-out: Max Protection (% v TTX)
[4] = target: T1, hERG potassium channel (Homo sapiens, UniProt Q12809); test: inhibition of binding of [3H]astemizole to cell membranes expressing hERG
T1 sequence (Q12809 whole entry): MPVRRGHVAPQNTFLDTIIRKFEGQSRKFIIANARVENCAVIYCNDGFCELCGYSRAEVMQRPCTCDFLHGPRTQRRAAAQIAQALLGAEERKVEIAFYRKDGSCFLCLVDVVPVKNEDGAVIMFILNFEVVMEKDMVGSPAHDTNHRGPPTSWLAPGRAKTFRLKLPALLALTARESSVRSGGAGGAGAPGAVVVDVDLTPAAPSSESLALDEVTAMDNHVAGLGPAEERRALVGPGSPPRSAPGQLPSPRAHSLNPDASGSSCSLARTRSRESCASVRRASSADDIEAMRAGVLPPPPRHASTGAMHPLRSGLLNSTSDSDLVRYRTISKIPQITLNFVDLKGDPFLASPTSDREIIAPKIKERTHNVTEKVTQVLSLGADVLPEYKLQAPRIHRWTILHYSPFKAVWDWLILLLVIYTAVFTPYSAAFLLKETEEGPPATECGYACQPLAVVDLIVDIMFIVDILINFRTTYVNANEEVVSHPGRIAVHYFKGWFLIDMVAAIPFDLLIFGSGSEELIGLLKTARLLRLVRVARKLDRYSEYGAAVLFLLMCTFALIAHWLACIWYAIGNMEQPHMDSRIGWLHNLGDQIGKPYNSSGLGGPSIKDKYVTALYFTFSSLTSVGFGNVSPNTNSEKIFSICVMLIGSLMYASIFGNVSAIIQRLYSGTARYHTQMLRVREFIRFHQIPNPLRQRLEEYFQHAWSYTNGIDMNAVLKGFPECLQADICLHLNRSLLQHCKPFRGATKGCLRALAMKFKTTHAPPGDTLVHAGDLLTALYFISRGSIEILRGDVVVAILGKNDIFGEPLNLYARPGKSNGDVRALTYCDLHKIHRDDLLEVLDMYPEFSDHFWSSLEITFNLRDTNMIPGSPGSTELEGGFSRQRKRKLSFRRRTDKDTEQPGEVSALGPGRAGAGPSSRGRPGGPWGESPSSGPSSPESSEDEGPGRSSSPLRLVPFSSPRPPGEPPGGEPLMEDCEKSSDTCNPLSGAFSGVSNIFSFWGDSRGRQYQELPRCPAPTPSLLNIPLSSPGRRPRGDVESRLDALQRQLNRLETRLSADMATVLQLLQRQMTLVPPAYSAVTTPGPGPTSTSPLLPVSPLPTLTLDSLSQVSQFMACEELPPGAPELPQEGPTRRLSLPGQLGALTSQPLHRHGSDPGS

[5] = target: T1, hERG potassium channel; test: in vitro
[6] = target: T2, DiHydroFolate Reductase (DHFR) (Rattus norvegicus, UniProt Q920D2); test: inhibition of binding of [3H]methotrexate to rat liver homogenate supernatant; details: for IC50: rat liver supernatant
T2 construct: from tissue; host or cells: rat liver homogenate supernatant (47,500 x g)
T2 sequence (Q920D2 1-187): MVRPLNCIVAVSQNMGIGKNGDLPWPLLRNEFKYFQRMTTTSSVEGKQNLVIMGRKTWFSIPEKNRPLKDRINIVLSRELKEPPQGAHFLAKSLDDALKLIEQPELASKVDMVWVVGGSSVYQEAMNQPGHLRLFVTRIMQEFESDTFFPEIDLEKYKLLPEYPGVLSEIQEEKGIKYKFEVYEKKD
Protocol: All steps were carried out at 4° (or on ice). Freshly dissected rat liver was dissected into 0.25M ice-cold Sucrose and subsequently homogenised (U-turrax) in 50 mM pH 6.0 phosphate buffer (10 ml/g tissue) containing 15 mM Dithiothreitol. The resulting homogenate was centrifuged @ 47,500×g for 20 min and supernatant (filtered through cotton wool to remove fatty lumps) stored @-80° before use (Rothenberg et al).
The binding reaction was stopped by the addition of 50 μl of a charcoal suspension (consisting of charcoal, Bovine Serum Albumin and Dextran present in a weight ratio of 100:4:1 suspended in 50 mM pH 6.0 phosphate buffer. Samples were vortexed, allowed to stand for 2 minutes and charcoal was precipitated by microcentrifugation @ full speed for 5 min. Aliquots of clear supernatant were transferred to counting vials containing liquid scintillant for measurement of radioactivity using Liquid Scintillation Spectroscopy.
Percentage inhibition values were calculated by comparison to this value.
as §1

[7] = Table 1, mean ± sem (n), read-out: [14C] guanidine uptake (synaptosomes), mean IC50
[8] = Table 3, rat forebrain synaptosomes, read-out: [14C]guanidine flux Mean (IC50: μM)
[9] = Table 5, read-out: [14C]guanidine flux IC50
[10] = Table 1, synaptosomes, mean ± sem (n), read-out: [3H]BTX-B binding (synaptosomes), mean IC50
[11] = Table 4, tissue prep'n Homogenate, read-out: [3H]BTX-B binding Mean (IC50: μM)
[12] = Table 4, tissue prep'n Synaptosomes, read-out: [3H]BTX-B binding Mean (IC50: μM)
[13] = Table 5, Synaptosome data, read-out: [3H]BTX-B IC50
[14] = Rattus norvegicus, read-out: EC50 (max set @ 100)
[15] = Rattus norvegicus, read-out: hippocampal slice EC50 (μM)
[16] = hERG / [3H]BTX-B selectivity, ratio of extrapolated hERG IC50 to [3H]BTX-B IC50 (synaptosomes)
[17] = hERG / [14C]guanidine flux selectivity, ratio of extrapolated hERG IC50 to [14C]guanidine flux IC50
[18] = read-out: [3H]methotrexate binding Inhibition (% @ assay conc'n), assay concentration 10 μM
[19] = read-out: [3H]methotrexate binding Inhibition (% @ assay conc'n), assay concentration 99 μM

SMILES | IC50 [1, 8] [µM] | IC50 [1, 9] [µM] | IC50 [2, 12] [µM] | IC50 [2, 13] [µM] | EC50 [3, 14] [µM] | Emax ([3]; Rattus norvegicus) [%] | EC50 [3, 15] [µM] | IC50 [4] [µM] | inhibition at 10 µM [5] [%] | selectivity ratio [5, 16] | selectivity ratio [5, 17] | inhibition at 10 µM [6, 18] [%] | inhibition at 99 µM [6, 19] [%] | other results
Nc1nnc(-c2cccc(Cl)c2Cl)c(N)n1 [Example 1, 5(3)-amino-6-(2,3-dichlorophenyl)-2,3(2,5)-dihydro-3(5)-imino-1,2,4-triazine, reference compound] | 209 | 209 | 76.6 | 76.6 | 33.1 | 79 | 30.2 |  |  |  |  |  |  | IC50 [1, 7]: 186 ± 26.5 µM; pIC50 (uptake of [14C]guanidine) ([1]; Table 8, listed as Lamotrigine): 3.75 ± 0.13 and 3.68 ± 0.27; IC50 ([1]; Table 8, listed as Lamotrigine, read-out: IC50 (μM) (uptake of [14C]guanidine)): 178 µM and 209 µM; IC50 [2, 10]: 82.6 ± 2.3 µM; IC50 [2, 11]: 97.9 µM
CCn1nc(-c2cc(Cl)ccc2Cl)c(N)nc1=N (as salt: methanesulfonate) [Example 49, 5(3)-Amino-6-(2,5-dichlorophenyl)-2,3(2,5)-dihydro-3(5)-imino-2-ethyl-1,2,4-triazine methanesulfonate] |  |  |  |  |  |  |  |  |  |  |  |  |  | melting point: 264 to 265 °C
CCCn1nc(-c2cc(Cl)cc(Cl)c2Cl)c(N)nc1=N [Example 34, 5(3)-Amino-6-(2,3,5-trichlorophenyl)-2,3(2,5)-dihydro-3(5)-imino-2-propyl-1,2,4-triazine] | 1.3 | 1.3 | 0.5 | 0.5 |  | 37 | 9.8 | 6.1 | 62 | 12.3 | 4.7 |  |  | IC50 [6]: > 300 µM
CCCn1nc(-c2cccc(Cl)c2Cl)c(N)nc1=N [Example 6, 5(3)-Amino-6-(2,3-dichlorophenyl)-2,3(2,5)-dihydro-3(5)-imino-2-propyl-1,2,4-triazine] | 2.8 | 4.8 | 3.6 | 2.2 | 14.5 | 81 ± 27 | 10.4 | 2.8 | 78 | 1.3 | 0.6 | 0 | 2 | IC50 [2, 11]: 0.5 µM
Cn1nc(-c2cccc(Cl)c2Cl)c(N)nc1=N [Example 2, 5-amino-6-(2,3-dichlorophenyl)-2,3-dihydro-3-imino-2-methyl-1,2,4-triazine] | 35.9 | 35.9 | 7.2 | 7.2 | 37.4 | 98 ± 5 | 36.3 | 73.3 | 12 | 10.2 | 2 | 0 | -3 | IC50 [1, 7]: 35.9 ± 1.8 µM; IC50 [2, 10]: 7.4 ± 0.4 µM; IC50 [2, 11]: 2.5 µM
Nc1nnc(-c2cc(Cl)cc(Cl)c2Cl)c(N)n1 [Example 31, 6-(2,3,5-trichlorophenyl)-1,2,4-triazine-3,5-diamine] | 16.2 | 16.2 | 21.9 | 21.9 | 2.2 | 91 ± 4 | 1.8 | 66.9 | 13 | 3.1 | 4.1 |  |  | IC50 [6]: 41 ± 4.7 µM
Cn1nc(-c2cc(Cl)cc(Cl)c2)c(N)nc1=N (as salt: methanesulfonate) [Example 53, 5(3)-Amino-6-(3,5-dichlorophenyl)-2,3(2,5)-dihydro-3(5)-imino-2-methyl-1,2,4-triazine methanesulfonate] |  |  |  |  |  |  |  |  |  |  |  |  |  | melting point: 234 to 236 °C
N=c1nc(N)c(-c2cccc(Cl)c2Cl)nn1Cc1ccccc1 [Example 9, 5(3)-Amino-6-(2,3-dichlorophenyl)-2,3(2,5)-dihydro-3(5)-imino-2-phenylmethyl-1,2,4-triazine hemi-methanesulfonate] | 4.8 |  | 2.2 |  |  |  | > 30 |  |  |  |  | 2 | -4 | 
CN1CCN(c2ncc(-c3cc(Cl)cc(Cl)c3Cl)c(N)n2)CC1 [Sipatrigine, reference compound] |  |  |  |  | 12.6 | 90 | 10.7 | 1.5 |  |  |  | 0 |  | inhibition at 10 µM ([5]; hERG % inhibition @ 10 μM): 87%; inhibition at 198 µM ([6]; read-out: [3H]methotrexate binding Inhibition (% @ assay conc'n), assay concentration 198 μM): -6%
CCn1nc(-c2ccccc2)c(N)nc1=N (as salt: methanesulfonate) [Example 47, 5(3)-Amino-6-phenyl-2,3(2,5)-dihydro-3(5)-imino-2-ethyl-1,2,4-triazine methanesulfonate] |  |  |  |  |  |  |  |  |  |  |  |  |  | melting point: 230 to 232 °C
CCn1nc(-c2cc(Cl)cc(Cl)c2)c(N)nc1=N (as salt: methanesulfonate) [Example 54, 5(3)-Amino-6-(3,5-dichlorophenyl)-2,3(2,5)-dihydro-3(5)-imino-2-ethyl-1,2,4-triazine methanesulfonate] |  |  |  |  |  |  |  |  |  |  |  |  |  | melting point: 217 to 219 °C
Cn1nc(-c2cc(Cl)cc(Cl)c2Cl)c(N)nc1=N [Example 32, 5(3)-Amino-6-(2,3,5-trichlorophenyl)-2,3(2,5)-dihydro-3(5)-imino-2-methyl-1,2,4-triazine] | 6.4 | 6.4 | 1.9 | 1.9 |  | 65 ± 7 | 5.9 | 20.3 | 33 | 10.7 | 3.2 |  |  | IC50 [6]: > 250 µM
CC(C)Cn1nc(-c2cccc(Cl)c2Cl)c(N)nc1=N [Example 7, 5(3)-Amino-6-(2,3-dichlorophenyl)-2,3(2,5)-dihydro-3(5)-imino-2-isobutyl-1,2,4-triazine methanesulfonate] | 2.9 |  | 1 |  |  | 47 ± 3 | 1.3 |  |  |  |  | -4 | -2 | 
CCn1nc(-c2cccc(Cl)c2Cl)c(N)nc1=N [Example 3, 5(3)-Amino-6-(2,3-dichlorophenyl)-2,3(2,5)-dihydro-3(5)-imino-2-ethyl-1,2,4-triazine] | 6.4 |  | 3.7 |  |  |  |  |  |  |  |  |  |  | IC50 [2, 11]: 0.9 µM; [3H]methotrexate binding Inhibition (% @ assay conc'n) ([6]; assay concentration 10 μM): 0%; [3H]methotrexate binding Inhibition (% @ assay conc'n) ([6]; assay concentration 99 μM): 1%; Max Protection (% v TTX) ([3]; compared with the effect of 1 μM TTX = 100% protection): 87.0 % v TTX; EC50 ([3]; read-out: EC50 (max set @ 100), data re-computed setting max @ 100%): 20 µM; EC50 ([3]; read-out: hippocampal slice EC50, protection of ATP after iodoacetate): 16 µM
CCCCn1nc(-c2cccc(Cl)c2Cl)c(N)nc1=N [Example 8, 5(3)-Amino-6-(2,3-dichlorophenyl)-2,3(2,5)-dihydro-3(5)-imino-2-butyl-1,2,4-triazine] | 2.1 |  | 1.7 |  |  | 46 | 10 |  |  |  |  | -4 | -2 | 
